We go through 19 compounds from patent publication US20100009956A1, “NOVEL SUBSTITUTED PYRIMIDINES AS CYSTEINE PROTEASE INHIBITORS” (Glaxo Group Limited , a corporation, priority 2006, published 2010).

Common to all, as to assay type: biochemical
One experiment addresses Falcipain-2 (Plasmodium falciparum, UniProt Q8I6U4). The experiment is described as follows: Falcipain-2 enzymatic assay (assay 1). As for the experimental part:
(§1) Assay 1) Determination of Falcipain-2, Falcipain-3, Vivapain-2, Cathepsin K Cathepsin S, Cathepsin L, and Cathepsin B Proteolytic Catalytic Activity
(§2) Assays for Falcipain-2, Falcipain-3, and Vivapain-2 are carried out with parasitic recombinant enzymes. Cathepsins K, S, L, and B are carried out with human recombinant enzymes. Standard assay conditions for the determination of kinetic constants used a fluorogenic peptide substrate, typically H-D-VLR-AFC (Falcipain-2, Falcipain-3, Vivapain-2), Z-FR-AFC (Cathepsin K, L, B), or KQKLR-AMC (Cathepsin S) and are determined in 100 mM sodium acetate, pH 5.5, containing 10 mM DTT and 0.5 mM CHAPS (Falcipain-2, Falcipain-3, Vivapain-2), and 100 mM sodium acetate, pH 5.5, containing 5 mM L-cysteine, 1 mM CHAPS and 5 mM EDTA (Cathepsin K, L, B), or 50 mM MES, pH 6.5, containing 0.5 mM CHAPS, 10 mM L-CYS, 5 mM EDTA (Cathepsin S). Stock substrate solutions are prepared at 20 mM in DMSO. The activity assays contained 30 uM substrate (Falcipain-2, Falcipain-3, Vivapain-2), 20 uM substrate (Cathepsin K), 25 uM substrate (Cathepsin B), 5 uM substrate (Cathepsin L), and 30 uM substrate (Cathepsin S). All assays contained 1% DMSO. […] All assays are conducted at ambient temperature as end point assays being quenched after 60 minutes with the exception of Cathepsin S at 90 minutes, with 16.6 uM E-64 in 1% DMSO. Product formation (AFC or AMC) is determined from fluorescence (excitation at 405 nm; emission at 530 nm, AFC, or excitation at 360 nm; emission at 460 nm, AMC) monitored with a LJL Aquest (Molecular Devices) fluorescent plate reader. In the case of kinetic reads (used in mechanism of action studies), the reaction is not quenched but is read in the plate reader every 3 minutes for approximately 90 minutes. In addition, the mechanism of action studies for Falcipain-2 utilize Z-LR-AMC as the substrate. Product formation is determined from the fluorescence of AMC, measured with a LJL Acquest (Molecular Devices) fluorescent plate reader (excitation at 360 nm; emission at 460 nm).
(§3) Potential inhibitors are evaluated using the quenched read (endpoint) method. Assays are carried out in the presence of variable concentrations of test compound. Reactions are initiated by addition of enzyme and substrate to wells containing inhibitor stamped in 100% DMSO. For endpoint assays, the reaction is quenched with the addition of E64. Dose response data is fit to an IC50 curve with preset fitting tools according to equation 1:
(§4) y=a+(b−a)/(1+(10^x/10^c)^d) (1)
(§5) where y is the response at a particular inhibitor concentration x, a is the minimum response value, b is the maximum response value, c is the IC50, and d is the slope of the IC50 curve. Assuming the compound is a competitive inhibitor, the apparent KI can be calculated from IC50, as shown in equation 2: […]

The target in another experiment is Falcipain-3 (Plasmodium falciparum, UniProt Q8IIL0). The experiment is described as follows: Falcipain-3 enzymatic assay (assay 1). As for the experimental part:
as §1, §2, §3, §4, §5

A further experiment addresses T1, Cathepsin K (Homo sapiens, UniProt P43235).
T1 sequence (P43235 115-329): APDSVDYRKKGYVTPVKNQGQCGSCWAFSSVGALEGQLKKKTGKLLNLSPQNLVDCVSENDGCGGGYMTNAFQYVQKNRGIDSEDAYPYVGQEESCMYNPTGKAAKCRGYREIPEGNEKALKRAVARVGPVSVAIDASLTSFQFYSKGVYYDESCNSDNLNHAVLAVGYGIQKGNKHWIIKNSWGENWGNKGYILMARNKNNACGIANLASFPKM
The experiment is described as follows: Cathepsin K enzymatic assay (assay 1). Conditions: human recombinant enzyme, Z-FR-AFC substrate, pH 5.5. As for the experimental part:
as §1, §2, §3, §4, §5

Counter-ions that a name gives are not always drawn. Like-named read-outs stand apart in the source and are kept apart here.

Falcipain-3, sequence (Q8IIL0 243-492): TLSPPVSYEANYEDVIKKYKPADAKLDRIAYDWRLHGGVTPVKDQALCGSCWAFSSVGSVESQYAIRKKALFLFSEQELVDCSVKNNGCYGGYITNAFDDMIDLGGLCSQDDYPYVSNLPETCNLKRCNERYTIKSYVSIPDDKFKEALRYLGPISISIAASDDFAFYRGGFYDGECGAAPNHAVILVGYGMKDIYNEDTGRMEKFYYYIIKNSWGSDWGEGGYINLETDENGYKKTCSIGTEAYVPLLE
Falcipain-2, sequence (Q8I6U4 244-484): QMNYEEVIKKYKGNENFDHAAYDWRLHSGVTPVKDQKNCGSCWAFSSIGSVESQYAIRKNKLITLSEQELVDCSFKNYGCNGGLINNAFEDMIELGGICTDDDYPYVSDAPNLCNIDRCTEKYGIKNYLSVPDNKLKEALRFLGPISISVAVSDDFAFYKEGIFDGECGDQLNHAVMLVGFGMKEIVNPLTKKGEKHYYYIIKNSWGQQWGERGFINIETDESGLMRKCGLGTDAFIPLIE

As to `CC1CCC(N(NC(=O)c2ccc(CN3CCN(C)CC3)cc2)c2nc(C#N)ncc2Br)C1` (mixture of isomers) [Example 26, N′-(5-bromo-2-cyano-4-pyrimidinyl)-N′-(3-methylcyclopentyl)-4-[(4-methyl-1-piperazinyl)methyl]benzohydrazide trifluoroacetate], the 50% inhibitory concentration (IC50) (as a rule, the point on the concentration scale where inhibition reaches its midpoint) against Falcipain-2 is under 1 nM; against Falcipain-3, 15 to 150 nM.

On to `CCN(C)Cc1ccc(C(=O)NN(c2nc(C#N)ncc2Cl)C2CCCC2)cc1` [Example 74, N′-(5-chloro-2-cyano-4-pyrimidinyl)-N′-cyclopentyl-4-{[ethyl(methyl)amino]methyl}benzohydrazide trifluoroacetate], for which the values for the IC50 at Falcipain-2 and against Falcipain-3 were under 1 nM and 15 to 150 nM, respectively.

On to `N#Cc1ncc(Br)c(N(NC(=O)c2ccc(CN3CCC(N4CCOCC4)CC3)cc2)C2CCCCC2)n1` [Example 18, N′-(5-bromo-2-cyano-4-pyrimidinyl)-N′-cyclohexyl-4-{([4-(4-morpholinyl)-1-piperidinyl]methyl}benzohydrazide trifluoroacetate], for which the results for the IC50 on Cathepsin K, against Falcipain-2 and on Falcipain-3 were under 1.5 nM, under 1 nM and 2.5 to 15 nM, respectively.

For the compound `CN1CCN(C(=O)C2CCN(Cc3cccc(C(=O)NN(c4nc(C#N)ncc4Br)C4CCCC4)c3)CC2)CC1` [Example 12, N′-(5-bromo-2-cyano-4-pyrimidinyl)-N′-cyclopentyl-3-({4-[(4-methyl-1-piperazinyl)carbonyl]-1-piperidinyl}methyl)benzohydrazide trifluoroacetate], the IC50 was under 1.5 nM on Cathepsin K, under 1 nM against Falcipain-2 and 2.5 to 15 nM against Falcipain-3.

Regarding `CN1CCC(CN2CCN(Cc3ccc(C(=O)NN(c4nc(C#N)ncc4Br)C4CCCCC4)cc3)CC2)CC1` [Example 19, N′-(5-bromo-2-cyano-4-pyrimidinyl)-N′-cyclohexyl-4-({4-[(-methyl-4-piperidinyl)methyl]-1-piperazinyl}methyl)benzohydrazide trifluoroacetate], the IC50 on Cathepsin K was under 1.5 nM; on Falcipain-2, under 1 nM; against Falcipain-3, 2.5 to 15 nM.

Turning to `CC(C)N(Cc1ccc(C(=O)NN(c2nc(C#N)ncc2Cl)C2CCCC2)cc1)C1CCCCC1` [Example 75, N′-(5-chloro-2-cyano-4-pyrimidinyl)-4-{[cyclohexyl(1-methylethyl)amino]methyl}-N′-cyclopentylbenzohydrazide trifluoroacetate], the values for the IC50 at Falcipain-2 and at Falcipain-3 were under 1 nM and 2.5 to 15 nM, respectively.

For the compound `CN1CCCC(CN2CCN(Cc3ccc(C(=O)NN(c4nc(C#N)ncc4Br)C4CCCCC4)cc3)CC2)C1` (centres unmarked) [Example 25, N′-(5-bromo-2-cyano-4-pyrimidinyl)-N′-cyclohexyl-4-({4-[(-methyl-3-piperidinyl)methyl]-1-piperazinyl}methyl)benzohydrazide trifluoroacetate], the IC50 at Cathepsin K was under 1.5 nM; on Falcipain-2, under 1 nM; at Falcipain-3, 2.5 to 15 nM.

For `CN1CCN(c2cccc(C(=O)NN(c3nc(C#N)ncc3Cl)C3CCCC3)n2)CC1` [Example 78, N′-(5-chloro-2-cyano-4-pyrimidinyl)-N′-cyclopentyl-6-(4-methyl-1-piperazinyl)-2-pyridinecarbohydrazide trifluoroacetate], the values for the IC50 on Falcipain-2 and on Falcipain-3 were under 1 nM and 15 to 150 nM, respectively.

`CN1CCC(CN2CCN(Cc3cccc(C(=O)NN(c4nc(C#N)ncc4Br)C4CCCC4)c3)CC2)CC1` [Example 15, N′-(5-bromo-2-cyano-4-pyrimidinyl)-N′-cyclopentyl-3-({4-[(1-methyl-4-piperidinyl)methyl]-1-piperazinyl}methyl)benzohydrazide trifluoroacetate]: the IC50 at Cathepsin K is under 1.5 nM; against Falcipain-2, under 1 nM; at Falcipain-3 (parasitic recombinant enzyme, H-D-VLR-AFC substrate, pH 5.5, endpoint read, read-out: Falcipain-3 IC50), 2.5 to 15 nM.

Turning to `N#Cc1ncc(Br)c(N(NC(=O)c2ccc(CN3CCC(O)CC3)cc2)C2CCCCC2)n1` [Example 21, N′-(5-bromo-2-cyano-4-pyrimidinyl)-N′-cyclohexyl-4-[(4-hydroxy-1-piperidinyl)methyl]benzohydrazide trifluoroacetate], the IC50 on Cathepsin K was under 1.5 nM; against Falcipain-2, under 1 nM; at Falcipain-3, 2.5 to 15 nM.

In the case of `CN1CCN(C2CCN(Cc3ccc(C(=O)NN(c4nc(C#N)ncc4Br)C4CCN(C(=O)OCc5ccccc5)CC4)cc3)CC2)CC1` [Example 48, Phenylmethyl 4-{1-(5-bromo-2-cyano-4-pyrimidinyl)-2-[(4-{[4-(4-methyl-1-piperazinyl)-1-piperidinyl]methyl}phenyl)carbonyl]hydrazino}-1-piperidinecarboxylate triflouroacetate], the IC50 was in the range of 1 to 2.5 nM on Falcipain-2 and 2.5 to 15 nM on Falcipain-3.

For the compound `CN1CCN(Cc2ccc(C(=O)NN(c3nc(C#N)ncc3Cl)C3CCOCC3)cc2)CC1` [Example 67, N′-(5-chloro-2-cyano-4-pyrimidinyl)-4-[(4-methyl-1-piperazinyl)methyl]-N′-(tetrahydro-2H-pyran-4-yl)benzohydrazide trifluoroacetate], the IC50 against Falcipain-2 is under 1 nM; against Falcipain-3, 2.5 to 15 nM.

On to `CN1CCN(Cc2ccc(C(=O)NN(c3nc(C#N)ncc3Br)C3CCOCC3)cc2)CC1` [Example 42, N′-(5-bromo-2-cyano-4-pyrimidinyl)-4-[(4-methyl-1-piperazinyl)methyl]-N′-(tetrahydro-2H-pyran-4-yl)benzohydrazide trifluoroacetate], for which the half-maximal inhibitory concentration (IC50) on Falcipain-2 (parasitic recombinant enzyme, H-D-VLR-AFC substrate, pH 5.5, endpoint read, read-out: Falcipain-2 IC50) is under 1 nM; against Falcipain-3 it was 15 to 150 nM.

For `CN(Cc1ccc(C(=O)NN(c2nc(C#N)ncc2Cl)C2CCCC2)cc1)C(C)(C)C` [Example 73, N′-(5-chloro-2-cyano-4-pyrimidinyl)-N′-cyclopentyl-4-{[(1,1-dimethylethyl)(methyl)amino]methyl}benzohydrazide trifluoroacetate], the IC50 on Falcipain-2 was under 1 nM; on Falcipain-3, 2.5 to 15 nM.

In the case of `CCN(Cc1ccc(C(=O)NN(c2nc(C#N)ncc2Cl)C2CCCC2)cc1)C(C)C` [Example 68, N′-(5-chloro-2-cyano-4-pyrimidinyl)-N′-cyclopentyl-4-{[ethyl(1-methylethyl)amino]methyl}benzohydrazide trifluoroacetate], the values for the IC50 against Falcipain-2 and at Falcipain-3 were under 1 nM and 2.5 to 15 nM, respectively.

`N#Cc1ncc(Br)c(N(NC(=O)c2cccc(CN3CCC(N4CCOCC4)CC3)c2)C2CCCC2)n1` [Example 13, N′-(5-bromo-2-cyano-4-pyrimidinyl)-N′-cyclopentyl-3-{[4-(4-morpholinyl)-1-piperidinyl]methyl}benzohydrazide trifluoroacetate]: the IC50 was under 1 nM at Falcipain-2 and 2.5 to 15 nM at Falcipain-3.

With `CN1CCN(Cc2ccc(C(=O)NN(CC(C)(C)C)c3nc(C#N)ncc3Br)cc2)CC1` [Comparative Example 39, N′-(5-bromo-2-cyano-4-pyrimidinyl)-N′-(2,2-dimethylpropyl)-4-[(4-methyl-1-piperazinyl)methyl]benzohydrazide trifluoroacetate, reference compound], the results for the IC50 on Falcipain-2 and at Falcipain-3 were 15 to 150 nM and 150 to 250 nM, respectively.

For the compound `CN(Cc1ccc(C(=O)NN(c2nc(C#N)ncc2Cl)C2CCCC2)cc1)CC(O)CO` (centres unmarked) [Example 76, N′-(5-chloro-2-cyano-4-pyrimidinyl)-N′-cyclopentyl-4-{[(2,3-dihydroxypropyl)(methyl)amino]methyl}benzohydrazide trifluoroacetate], the results for the IC50 against Falcipain-2 and against Falcipain-3 were under 1 nM and 2.5 to 15 nM, respectively.

As to `CN(CCO)Cc1ccc(C(=O)NN(c2nc(C#N)ncc2Cl)C2CCCC2)cc1` [Example 58, N′-(5-chloro-2-cyano-4-pyrimidinyl)-N′-cyclopentyl-4-{[(2-hydroxyethyl)(methyl)amino]methyl}benzohydrazide trifluoroacetate], the IC50 against Falcipain-2 is under 1 nM; against Falcipain-3 it was 1 to 2.5 nM.
